Experiments:
[1] = system: Plasmodium falciparum (3D7); experiment: In-vitro potency against P. falciparum (3D7 strain), SYBR Green growth inhibition; type: cell-based; conditions: P. falciparum 3D7, asexual intraerythrocytic stage, SYBR Green fluorescence
Procedure: Cultures of the widely-used malaria reference strain of chloroquine-sensitive Plasmodium falciparum (3D7) were maintained in a 1.25% suspension of human red blood cells cultured in RPMI 1640 medium (pH 7.3) supplemented with 0.5% Albumax II (Gibco Life Technologies, San Diego, CA), 12 mM sodium bicarbonate, 0.2 mM hypoxanthine, and 20 mg/L gentamicin at 37° C., in an atmosphere of 1% O2, 3% CO2 with a balance of nitrogen (Human malaria parasites in continuous culture. Trager W et al., 1976, Science, 193: 673-675). Growth inhibition was quantified using a fluorescence assay utilising the binding of SYBR Green (Novel, rapid, and inexpensive cell-based quantification of antimalarial drug efficacy. Bennett T. N. et al., 2004, Antimicrob. Agents Chemother., 48: 1807-1810) to double stranded DNA, which emits a fluorescent signal at 528 nm after excitation at 485 nm. Mefloquine was used as a drug control to monitor the quality of the assay (Z′=0.6 to 0.8, where Z′ is a measure of the discrimination between the positive and negative controls on a screen plate). Hits were confirmed by full-potency curves with dose-response curves determined from a minimum of 3 independent experiments. Compound bioactivity was expressed as EC50, the effective concentration of compound causing 50% parasite death. All data were processed using IDBS ActivityBase. Raw data was converted into percent inhibition through linear regression by setting the high inhibition control as 100% and the no inhibition control as 0%. Quality control criteria for passing plates were as follows: z′>0.5, S:B>3, % CV(no inhibition control)<15. The formula used to calculate z′ is
Curve fitting was carried out using the following 4 parametric equation:
where A=% inhibition at bottom, B=% inhibition at top, C=EC50, D=slope, x=inhibitor concentration and y=% inhibition. If curve definition was poor, B was fixed to 100.

[2] = Microsomal intrinsic clearance, human liver microsomes; type: in vitro ADME; conditions: human liver microsomes (pooled), pH 7.4, 45 min, NADPH
Procedure: (§1) The compounds of the invention (1 μM) were incubated in suspension with human (rat or mouse) liver microsomes pooled from multiple donors (>10) and samples taken at 5 time points over the course of a 45 min experiment and analysed by LC MS/MS. Microsomes (final protein concentration 0.5 mg/mL), 0.1 M phosphate buffer pH 7.4 and test compound (final substrate concentration 1 μM; final DMSO concentration 0.25%) were pre-incubated at 37° C. prior to the addition of NADPH (final concentration 1 mM) to initiate the reaction. A minus cofactor control incubation was included for each compound tested where 0.1 M phosphate buffer pH 7.4 is added instead of NADPH (minus NADPH). All incubations were performed in duplicate for each test compound and the results averaged. Each compound is incubated for 0, 5, 15, 30 and 45 min. The control (minus NADPH) was incubated for 45 min only. The reactions were stopped by transferring incubate into acetonitrile at the appropriate time points, in a 1:3 ratio.
(§2) The termination plates were centrifuged at 3,000 rpm for 20 min at 4° C. to precipitate the protein. Following protein precipitation, the sample supernatants were combined in cassettes of up to 4 compounds, internal standard added and samples analysed by LC-MS/MS. From a plot of ln peak area ratio (compound peak area/internal standard peak area) against time, the gradient of the line is determined. Subsequently, half-life (t½) and intrinsic clearance (CLint) are calculated using the equations below: Elimination rate constant (k)=(−gradient) Half-life (t1/2)(min)=0.693/k Intrinsic clearance (i.e. CLint)(μL/min/mg protein)=V×0.693/t1/2 where V=Incubation volume (μL)/Microsomal protein (mg)
(§3) Verapamil and dextromethorphan were included in the assay as controls and if the values for these compounds were not within the specified limits the results were rejected and the experiment repeated.

[3] = Hepatocyte intrinsic clearance, cryopreserved human hepatocytes; type: in vitro ADME; conditions: cryopreserved human hepatocytes in suspension (pooled), 60 min
Procedure: The compounds of the invention (3 μM) were incubated in suspension with cryopreserved human (rat or mouse) hepatocytes pooled from multiple donors (>10) and samples taken at 6 time points over the course of a 60 min experiment and analysed by LC MS/MS. Williams E media supplemented with 2 mM L-glutamine and 25 mM HEPES and test compound (final substrate concentration 3 μM; final DMSO concentration 0.25%) were pre-incubated at 37° C. prior to the addition of a suspension of cryopreserved hepatocytes (final cell density 0.5×10^6 viable cells/mL in Williams E media supplemented with 2 mM L glutamine and 25 mM HEPES) to initiate the reaction. The final incubation volume is 500 μL. The reactions are stopped by transferring aliquots of incubate into acetonitrile at the appropriate time points, in a 1:2 ratio. The termination plates are centrifuged at 3,000 rpm for 20 min at 4° C. to precipitate the protein. Following protein precipitation, the sample supernatants were combined in cassettes of up to 4 compounds, internal standard was added and analysed by LC MS/MS. From a plot of ln peak area ratio (compound peak area/internal standard peak area) against time, the gradient of the line was determined. Subsequently, half-life (t½) and intrinsic clearance (CLint) were calculated using the equations below: Elimination rate constant (k)=(−gradient) Half-life (t½) (min)=0.693/k Intrinsic clearance (i.e. CLint) (μL/min/million cells)=V×0.693/t1/2
where V=Incubation volume (μL)/Number of cells
Verapamil and umbelliferone were included in the assay as controls and if the values for these compounds are not within the specified limits the results were rejected and the experiment repeated.

[4] = PK parameters in mouse (IV and PO); type: in vivo; conditions: for PK parameters (mouse): F: 10 mg/kg IV and 10 mg/kg PO; for clearance / half-life: male, Swiss Albino, plasma, IV arm, 10 mg/kg; for clearance: read-out: PK parameters (mouse): Cl; for half-life: read-out: PK parameters (mouse): t1/2
Procedure: Swiss Albino male mice or Sprague Dawley rats (TCGLS, India) were kept under a 12/12 h light/dark cycle, 22±2° C. temp, 50±20% RH with free access to food and water ad libitum. Mice were selected randomly/based on body weight/age and fasted for 4 h before dosing and until 2 h after dosing. Three mice were used per route of administration. […]
(§4) Blood samples were taken (mice 50 μL, rat 100 μL) at regular timepoints from the saphenous vein (conscious restrained animals) and collected into heparinized capillary tubes and transferred into 0.5 mL microcentrifuge tubes. Samples were processed by centrifugation at 1640 g for 10 min at +4° C. within 30 min of collection and stored at −20° C. until bioanalysis. All samples were mixed with ice-cold acetonitrile containing an internal standard, centrifuged at 4000 rpm for 15 min at 15° C. Supernatant was then half diluted in water and analysed by LCMS/MS analysis to determine analyte peak area/IS peak area (the ratio). Concentration (plasma) of the compounds of the invention was determined by reference to a calibration curve. Pharmacokinetic parameters (Cmax, Tmax, AUC, t1/2, CL, Vd, BA) were calculated using WinNonLin, using non-compartmental analysis (Phoenix, Version 6.3). The pharmacokinetic parameters for compounds shown in Table 2 support that compounds of the invention have pharmacokinetic properties associated with treatment of malaria via the oral route and that compounds have substantially longer half-lives than the reference compound.

[5] = Microsomal intrinsic clearance, rat liver microsomes; type: in vitro ADME; conditions: rat liver microsomes (pooled), pH 7.4, 45 min, NADPH
Procedure: as §1, §2, §3

[6] = Microsomal intrinsic clearance, mouse liver microsomes; type: in vitro ADME; conditions: mouse liver microsomes (pooled), pH 7.4, 45 min, NADPH
Procedure: as §1, §2, §3

[7] = PK parameters in rat (IV and PO); type: in vivo; conditions: for PK parameters (rat): F: 1 mg/kg IV and 3 mg/kg PO; for clearance / half-life: Sprague Dawley, plasma, IV arm, 1 mg/kg; for clearance: read-out: PK parameters (rat): Cl; for half-life: read-out: PK parameters (rat): t1/2
Procedure: Swiss Albino male mice or Sprague Dawley rats (TCGLS, India) were kept under a 12/12 h light/dark cycle, 22±2° C. temp, 50±20% RH with free access to food and water ad libitum. Mice were selected randomly/based on body weight/age and fasted for 4 h before dosing and until 2 h after dosing. Three mice were used per route of administration. For IV determination (1 mg/kg, dose volume 5 ml/kg) the dose was administered by injection into the lateral tail vein (rats are anaesthetized using 3% v/v isoflurane: oxygen mixture). For PO determination (3 mg/kg, dose volume 10 ml/kg) the dose was administered by oral gavage in conscious animals.
as §4

| EC50 [1] [nM] | microsomal CLint at 1 μM [2] [µL/min/mg] | hepatocyte CLint at 3 μM [3] [µL/min/1e6 cells] | PK parameters (mouse): F [4] | clearance [4] [mL/min/kg] | half-life [4] [h] | microsomal CLint at 1 μM [5] [µL/min/mg] | microsomal CLint at 1 μM [6] [µL/min/mg] | PK parameters (rat): F [7] | clearance [7] [mL/min/kg] | half-life [7] [h] | Compound |
| --- | --- | --- | --- | --- | --- | --- | --- | --- | --- | --- | --- |
| 80 | 13 |  |  |  |  |  |  |  |  |  | CC(C)Oc1ccc(C2C(C(=O)Nc3ccc(F)c(C#N)c3)c3ccccc3C(=O)N2CC(F)(F)F)cn1 (racemic) [(2), (+, −)-N-(3-cyano-4-fluorophenyl)-3-(6-isopropoxypyridin-3-yl)-1-oxo-2-(2,2,2-trifluoroethyl)-1,2,3,4-tetrahydroisoquinoline-4-carboxamide] |
| 70 | 6 | < 10 | F = 95% | 1.67 | 11 | < 10 | < 10 | F = 95% | 0.667 | 11 | N#Cc1cc(NC(=O)[C@H]2c3ccccc3C(=O)N(CC(F)(F)F)[C@@H]2c2ccc(C(F)(F)F)nc2)ccc1F [(3a), (3S,4S)—N-(3-cyano-4-fluorophenyl)-1-oxo-2-(2,2,2-trifluoroethyl)-3-(6-(trifluoromethyl)pyridin-3-yl)-1,2,3,4-tetrahydroisoquinoline-4-carboxamide] |
| 53 | < 3 | < 3 | F = 56% | 2.67 | 41 | < 10 | < 10 | F = 33% | 0.5 | 85 | N#Cc1cc(NC(=O)[C@H]2c3ccccc3C(=O)N(CC(F)(F)F)[C@@H]2c2ccc(OCC(F)(F)F)nc2)ccc1F [(4a), (3S,4S)—N-(3-cyano-4-fluorophenyl)-1-oxo-3-(6-(2,2,2-trifluoroethoxy)pyridin-3-yl)-2-(2,2,2-trifluoroethyl)-1,2,3,4-tetrahydroisoquinoline-4-carboxamide] |
| 40 |  |  |  |  |  |  |  |  |  |  | CC(=O)Nc1ccc([C@@H]2[C@@H](C(=O)Nc3ccc(F)c(C#N)c3)c3ccccc3C(=O)N2CC(F)(F)F)cn1 [(5a), (3S,4S)-3-(6-acetamidopyridin-3-yl)-N-(3-cyano-4-fluorophenyl)-1-oxo-2-(2,2,2-trifluoroethyl)-1,2,3,4-tetrahydroisoquinoline-4-carboxamide] |
| 68 | < 3 | < 3 |  |  |  |  | < 10 |  |  |  | N#Cc1ccc([C@@H]2[C@@H](C(=O)Nc3ccc(F)c(C#N)c3)c3ccccc3C(=O)N2CC(F)(F)F)cn1 [(6a), (3S,4S)—N-(3-cyano-4-fluorophenyl)-3-(6-cyanopyridin-3-yl)-1-oxo-2-(2,2,2-trifluoroethyl)-1,2,3,4-tetrahydroisoquinoline-4-carboxamide] |
| 68 | < 3 | < 10 | F = 108% | 2.67 | 18 |  | < 10 | F = 108% | 1.5 | 38 | N#Cc1cc(NC(=O)[C@H]2c3ccccc3C(=O)N(CC(F)(F)F)[C@@H]2c2ccc(OC(F)F)nc2)ccc1F [(7a), (3S,4S)—N-(3-cyano-4-fluorophenyl)-3-(6-(difluoromethoxy)pyridin-3-yl)-1-oxo-2-(2,2,2-trifluoroethyl)-1,2,3,4-tetrahydroisoquinoline-4-carboxamide] |
| 59 | < 3 | 4 | F = 37% | 3.33 | 56 |  | < 10 |  |  |  | N#Cc1cc(NC(=O)[C@H]2c3ccccc3C(=O)N(CC(F)(F)F)[C@@H]2c2ccc(C(F)F)nc2)ccc1F [(8a), (3S,4S)—N-(3-cyano-4-fluorophenyl)-3-(6-(difluoromethyl)pyridin-3-yl)-1-oxo-2-(2,2,2-trifluoroethyl)-1,2,3,4-tetrahydroisoquinoline-4-carboxamide] |
